The values below come from ChEMBL document CHEMBL5604063, “ASAP - DENV-2 NS2B-NS3 protease fluorescence dose response” (2024).

Several values for one entry are separate records, joined by “and”; a condition that tells them apart may be missing. Equal entries are not always repeated.

Genome polyprotein, sequence (P29990 1346-1475 limits assumed): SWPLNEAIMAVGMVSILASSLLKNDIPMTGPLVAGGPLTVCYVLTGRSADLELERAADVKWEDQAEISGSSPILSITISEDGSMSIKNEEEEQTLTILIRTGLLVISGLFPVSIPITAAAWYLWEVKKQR
Genome polyprotein, sequence (P29990 1476-2093 limits assumed): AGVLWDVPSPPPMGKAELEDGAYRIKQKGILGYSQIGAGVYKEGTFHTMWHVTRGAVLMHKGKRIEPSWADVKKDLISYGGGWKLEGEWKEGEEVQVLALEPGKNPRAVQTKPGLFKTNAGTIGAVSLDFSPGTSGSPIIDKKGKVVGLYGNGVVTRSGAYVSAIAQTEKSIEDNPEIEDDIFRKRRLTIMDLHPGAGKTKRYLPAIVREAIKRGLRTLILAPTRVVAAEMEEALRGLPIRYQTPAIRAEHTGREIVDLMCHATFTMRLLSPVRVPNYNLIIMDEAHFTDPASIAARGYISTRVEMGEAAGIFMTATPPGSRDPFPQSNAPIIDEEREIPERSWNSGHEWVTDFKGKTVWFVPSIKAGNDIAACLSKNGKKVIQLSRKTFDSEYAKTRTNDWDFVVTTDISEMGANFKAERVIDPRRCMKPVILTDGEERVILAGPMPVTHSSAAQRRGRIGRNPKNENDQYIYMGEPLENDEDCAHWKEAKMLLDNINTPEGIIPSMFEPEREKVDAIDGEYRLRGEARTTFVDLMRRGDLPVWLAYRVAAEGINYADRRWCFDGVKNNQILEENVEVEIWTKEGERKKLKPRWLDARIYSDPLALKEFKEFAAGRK

This assay concerns the target Genome polyprotein (dengue virus type 2, UniProt P29990). Format: functional, Thailand/16681/1984.
What is called IC50 is the concentration needed to halve the response being measured. Take `Cc1ncsc1C(=O)N[C@H](C(=O)Nc1cccc(CN)c1)c1ccc(OCc2ccccc2)cc1`: the half-maximal inhibitory concentration (IC50) was above 99.5 µM. To `CCn1nc(C)c(CN(C)Cc2ccc3c(c2)CCNCC3)c1C` belongs above 99.5 µM; to `CCc1cc(F)ccc1CC(=O)N1CCCc2cc(CCN)ccc21`, above 99.5 µM; to `O=C(O)c1cc(Cl)ccc1NS(=O)(=O)c1ccc(OCc2ccncc2)cc1`, above 99.5 µM. Then `Cc1noc(C)c1C(=O)N[C@@H](C(=O)Nc1cccc(CN)c1)c1ccc(OCc2ccccc2)cc1`, with above 99.5 µM; and `O=C(NCCO)c1cc(Cl)ccc1NS(=O)(=O)c1ccc(Oc2ccccc2Cl)cc1`, with 68 µM. In turn, `Cn1cc(C(=O)N[C@@H](C(=O)Nc2cccc(CN)c2)c2ccc(OCc3ccccc3)cc2)cn1` yielded an IC50 above 99.5 µM.

`N[C@H]1CCc2cc(-c3ccn(-c4ccccc4)n3)ccc2C1` came in with an IC50 above 99.5 µM. Then `O=C(O)c1cc2c(cc1NS(=O)(=O)c1ccc(F)cc1)CCC2`, with above 99.5 µM.

In turn, `CCc1ccccc1COc1ccc(S(=O)(=O)Nc2ccc(Cl)cc2C(=O)O)cc1` came in with an IC50 of 6.5 µM. This counts as single-digit micromolar. Take `NCc1cccc(NC(=O)C[C@H](NC(=O)OCc2ccccc2)c2ccc(OC(F)(F)F)cc2)c1`: the 50% inhibitory concentration (IC50) is 42.9 µM and 44.6 µM. With `Cc1ccc(F)c2c1CCN(Cc1ccn(C3CNC3)c1)C2`, the IC50 was above 99.5 µM. Then `N[C@]12CCC[C@](C(=O)NCc3ccc4c(c3)CCNCC4)(CC1)C2`, with above 99.5 µM; and `NCc1cccc(NC(=O)C[C@H](NC(=O)OCc2ccccc2)c2ccc(Cl)c(Br)c2)c1`, with 22.8 µM and 22.9 µM and 12.9 µM and 12.6 µM. Then `CCn1nccc1-c1cccc([C@@H](NC(=O)OCc2ccccc2)C(=O)Nc2cccc(CN)c2)c1`, with above 99.5 µM; and `CC(C)(C)c1cc(N2CCN(c3cccc4[nH]ncc34)CC2)nc(C(=O)O)n1`, with above 99.5 µM.

`NCCNC(=O)c1cc(Cl)ccc1NS(=O)(=O)c1ccc(Oc2ccccc2Cl)cc1`: the half-inhibitory concentration (IC50) was above 99.5 µM. Compound `O=C(N[C@@H](C(=O)NCc1cn[nH]c1)c1ccc(OCc2ccccc2)cc1)OCc1ccccc1` displayed an IC50 above 99.5 µM. To `O=C(O)c1cc(Cl)ccc1NS(=O)(=O)c1ccc(OCc2nnnn2C2CCC2)cc1` belongs above 99.5 µM; to `NCc1cccc(NC(=O)[C@H](NC(=O)OCc2ccccc2)c2ccc(Br)c(Cl)c2)c1`, 11 µM and 8.42 µM and 6.79 µM and 9.88 µM and 12.5 µM and 8.05 µM; to `NCc1cccc(NC(=O)[C@H](NC(=O)OCc2ccccc2)c2ccc(Br)c(F)c2)c1`, 88.2 µM.

The compound `O=C(O)c1cc(Cl)ccc1NS(=O)(=O)c1ccc(OCc2cncnc2)cc1` had a half-maximal inhibitory concentration (IC50) above 99.5 µM.

Consider `Cc1cccnc1COc1ccc(S(=O)(=O)Nc2ccc(Cl)cc2C(=O)O)cc1`, for which the 50% inhibitory concentration (IC50) was above 99.5 µM.

`O=C(N[C@@H](C(=O)NCc1cnccn1)c1ccc(OCc2ccccc2)cc1)OCc1ccccc1` yielded an IC50 above 99.5 µM. Then `O=C(O)c1cc(Cl)ccc1NS(=O)(=O)c1ccc(NC2CCNCC2)nc1`, with above 99.5 µM. To `N#Cc1c(C(F)F)cccc1N1CCC(n2ncc(N)c2C(F)(F)F)CC1` belongs above 99.5 µM; to `CCn1c(=O)c(N2C[C@H]3C[C@@]3(C(F)F)C2)nc2ccccc21`, above 99.5 µM. Then `Cc1cc(F)cc(N(C)C(=O)c2ccc(C3(CN)CC3)cc2)c1`, with above 99.5 µM; and `NCc1cccc(NC(=O)[C@H]2[C@H]3CCCC[C@H]3[C@@H]2NC(=O)OCc2ccccc2)c1`, with 95.5 µM. Compound `N[C@H]1CC[C@H](NC(=O)[C@@H](NC(=O)OCc2ccccc2)c2ccc(OCc3ccccc3)cc2)CC1` came in with an IC50 above 99.5 µM. To `NCc1ccnc(CNC(=O)[C@@H](NC(=O)OCc2ccccc2)c2ccc(OCc3ccccc3)cc2)c1` belongs above 99.5 µM; to `Cc1n[nH]cc1CC(=O)N1CCCC12CCN(C(=O)c1ccnc(CO)c1)CC2`, above 99.5 µM. For the compound `NCc1cccc(NC(=O)C[C@H](NC(=O)OCc2ccccc2)c2ccc(Cl)c(F)c2)c1`, the IC50 came out at 97.6 µM. Then `CC[C@H]1CN(C(=O)c2ccc(C3(CN)CC3)cc2)Cc2ccccc21`, with above 99.5 µM; and `Cn1cnc2c1CN(Cc1ccc3c(c1)CCNCC3)CC2`, with above 99.5 µM; and `CCn1c(=O)c(N2CC[C@H](N3CCCC3=O)C2)nc2ccccc21`, with above 99.5 µM. To `CCn1c(=O)c(N2CC[C@H](c3cnccn3)C2)nc2ccccc21` belongs above 99.5 µM.

In the case of `NCc1cccc(NC(=O)[C@@H]2Cc3ccc(OCc4ccccc4)cc3CN2C(=O)OCc2ccccc2)c1`, half-maximal inhibition (IC50) was put at 86.7 µM.

With `NCC1(c2ccc(C(=O)N3CCc4scc(Br)c4C3)cc2)CC1`, the IC50 was above 99.5 µM. Then `NCc1cccc(CNC(=O)[C@@H](NC(=O)OCc2ccccc2)c2ccc(OCc3ccccc3)cc2)n1`, with above 99.5 µM; and `NCc1cccc(NC(=O)[C@]2(NC(=O)OCc3ccccc3)COc3cc(Br)ccc32)c1`, with above 99.5 µM; and `Cc1ccc(CNC(=O)[C@@H](NC(=O)OCc2ccccc2)c2ccc(OCc3ccccc3)cc2)cn1`, with above 99.5 µM.

For the compound `CCn1c(=O)c(N2C[C@H]3COC[C@@]3(C)C2)nc2ccccc21`, the IC50 was above 99.5 µM. To `CC(C)CNC(=O)c1cc(Cl)ccc1C=Cc1ccc(Oc2ccccc2Cl)cc1` belongs above 99.5 µM. As to `NCc1ccc(CNC(=O)[C@@H](NC(=O)OCc2ccccc2)c2ccc(OCc3ccccc3)cc2)cc1`, the 50% inhibitory concentration (IC50) was 16 µM and 8.53 µM and 8.03 µM.

In turn, `NCc1ccccc1C1CCN(C(=O)[C@@]23CNC[C@]2(C(F)(F)F)C3)CC1` displayed an IC50 above 99.5 µM. Then `CCn1c(=O)c(N2CC[C@H](c3ccccc3)C2)nc2ccccc21`, with above 99.5 µM.

For `CCOC(=O)c1cc(C(=O)N[C@H](C(=O)Nc2cccc(CN)c2)c2ccc(OCc3ccccc3)cc2)n(C)n1`, the IC50 was 24.3 µM and 24.8 µM.

In turn, `Cc1occ(C(F)(F)F)c1C(=O)N[C@H](C(=O)Nc1cccc(CN)c1)c1ccc(OCc2ccccc2)cc1` showed a 50% inhibitory concentration (IC50) above 99.5 µM. Then `O=C(N[C@H](C(=O)NCc1ccccc1CO)c1ccc(OCc2ccccc2)cc1)OCc1ccccc1`, with above 99.5 µM; and `NCc1cccc(NC(=O)[C@H](NC(=O)c2ccccc2Cl)c2ccc(OCc3ccccc3)cc2)c1`, with 45.8 µM. `O=C(NC1CCCCC1)c1cc(Cl)ccc1NS(=O)(=O)c1ccc(Oc2ccccc2Cl)cc1` showed a half-maximal inhibitory concentration (IC50) of 13.7 µM. To `NCc1cccc(NC(=O)[C@@H](NC(=O)OCc2ccccc2)c2ccc(OCc3ncccn3)cc2)c1` belongs above 99.5 µM; to `NCc1cccc(NC(=O)[C@H]2[C@H]3CCCCC[C@H]3[C@H]2NC(=O)OCc2ccccc2)c1`, 23.2 µM and 34.2 µM and 10.4 µM and 9.2 µM and 8.71 µM. To `Cc1cc(-c2cccc([C@@H](NC(=O)OCc3ccccc3)C(=O)Nc3cccc(CN)c3)c2)ccn1` belongs above 99.5 µM; to `NCc1cccc(NC(=O)[C@H]2c3ccc(Br)cc3OCCN2C(=O)OCc2ccccc2)c1`, above 99.5 µM; to `NC[C@H]1CC[C@@H](CNC(=O)[C@@H](NC(=O)OCc2ccccc2)c2ccc(OCc3ccccc3)cc2)CC1`, 85.6 µM. `NCc1cccc(NC(=O)[C@H](NC(=O)OCc2ccccc2)c2ccc(CO)cc2)c1` displayed an IC50 above 99.5 µM.

The compound `NCc1cccc(NC(=O)[C@H](NS(=O)(=O)c2ccc(Oc3ccccc3Cl)cc2)c2ccc(OCc3ccccc3)cc2)c1` returned an IC50 above 99.5 µM. Compound `CCCCCN(C)C(=O)c1cc(Cl)ccc1NS(=O)(=O)c1ccc(Oc2ccccc2Cl)cc1` gave an IC50 of 17.8 µM.

The compound `Cc1ccc([C@H]2[C@H](C)CN2C(=O)c2ccc(C(F)(F)CN)cc2)cc1` returned an IC50 above 99.5 µM.

`CN(C)CCc1ccc(CNC(=O)[C@@H](NC(=O)OCc2ccccc2)c2ccc(OCc3ccccc3)cc2)cc1` had a 50% inhibitory concentration (IC50) above 99.5 µM. `O=C(N[C@H](C(=O)NCc1cccc(CO)n1)c1ccc(OCc2ccccc2)cc1)OCc1ccccc1` registered a half-maximal inhibitory concentration (IC50) above 99.5 µM. To `O=C(O)c1ccc(F)c(F)c1NS(=O)(=O)c1ccc(Oc2ccccc2Cl)cc1` belongs 31.1 µM; to `O=C(N[C@@H](C(=O)NCc1cccc2c1CCNC2)c1ccc(OCc2ccccc2)cc1)OCc1ccccc1`, 53.5 µM.

For `C[C@@H](NC(=O)C1CCN(c2cccc(C(N)=O)n2)CC1)[C@H]1CCCNC1`, the IC50 is above 99.5 µM. To `CCc1n[nH]cc1-c1cccc([C@H](NC(=O)OCc2ccccc2)C(=O)Nc2cccc(CN)c2)c1` belongs above 99.5 µM; to `NCc1cccc(NC(=O)[C@H]2[C@H]3CCC[C@H]3[C@@H]2NC(=O)OCc2ccccc2)c1`, above 99.5 µM; to `NCc1cccc(NC(=O)C[C@H](NC(=O)OCc2ccccc2)c2ccc(C(F)(F)F)cc2)c1`, 58.1 µM. To `O=C(O)c1c(F)cc(F)cc1NS(=O)(=O)c1ccc(Oc2ccccc2Cl)cc1` belongs 41.5 µM.

Regarding `NC[C@H]1CC[C@H](NC(=O)[C@@H](NC(=O)OCc2ccccc2)c2ccc(OCc3ccccc3)cc2)CC1`, the IC50 is above 99.5 µM. Then `CCN(CC(=O)NC)C(=O)c1cc(Cl)ccc1NS(=O)(=O)c1ccc(Oc2ccccc2Cl)cc1`, with 70 µM; and `N[C@@H](Cc1c[nH]cn1)C(=O)N1CCC2(CC1)OCCc1cc(O)ccc12`, with above 99.5 µM.

Regarding `CN(C)CCNC(=O)[C@H](NC(=O)OCc1ccccc1)c1ccc(OCc2ccccc2)cc1`, the half-inhibitory concentration (IC50) is above 99.5 µM. To `NCc1ccc2c(c1)CCC[C@H]2NCc1cc(Cl)cc2c1OCC2` belongs above 99.5 µM.

In the case of `NCc1cccc(NC(=O)C[C@H](NC(=O)OCc2ccccc2)C2CCCCC2)c1`, the IC50 was 67.1 µM and 69.7 µM. Compound `O=C(N[C@@H](C(=O)NCC1CCNCC1)c1ccc(OCc2ccccc2)cc1)OCc1ccccc1` registered a half-inhibitory concentration (IC50) above 99.5 µM. Then `NCc1cccc(NC(=O)[C@H](NC(=O)Cn2cccn2)c2ccc(OCc3ccccc3)cc2)c1`, with above 99.5 µM; and `NC[C@H]1CC[C@H](CNC(=O)[C@@H](NC(=O)OCc2ccccc2)c2ccc(OCc3ccccc3)cc2)CC1`, with above 99.5 µM; and `C[C@]1(C(=O)N[C@H](C(=O)Nc2cccc(CN)c2)c2ccc(OCc3ccccc3)cc2)CCCO1`, with above 99.5 µM. To `CCn1ccnc(N2CC(=O)[C@@H](c3c[nH]c4ccccc34)C2)c1=O` belongs above 99.5 µM; to `O=S(=O)(Nc1ccc(Cl)cc1CN(CC1CC1)CC1CC1)c1ccc(Oc2ccccc2Cl)cc1`, 67.1 µM.

As for `O=C(NCc1nnn[nH]1)c1cc(Cl)ccc1NS(=O)(=O)c1ccc(Oc2ccccc2Cl)cc1`, it took 64.5 µM to reach half-maximal inhibition (IC50).

Consider `NCc1cccc(NC(=O)C[C@H](NC(=O)OCc2ccccc2)c2ccc(Br)cc2)c1`, for which half-maximal inhibition (IC50) required 51.8 µM.

For `NCc1ccc(-c2ccc(OCC3CCNCC3)nc2-c2ccc(-c3ccoc3)cc2)cc1`, the 50% inhibitory concentration (IC50) was 67.1 µM.
